The target in one experiment is T1, 5-lipoxygenase (Mus musculus, UniProt P48999).
T1 construct: Preincubate MC-9 cells (0.39 ml at 7.5×10^6 cells/ml) without or with test compound; endogenous in cells; host or cells: MC-9 murine mast cell clone (interleukin-3-dependent)
T1 sequence (P48999 1-674): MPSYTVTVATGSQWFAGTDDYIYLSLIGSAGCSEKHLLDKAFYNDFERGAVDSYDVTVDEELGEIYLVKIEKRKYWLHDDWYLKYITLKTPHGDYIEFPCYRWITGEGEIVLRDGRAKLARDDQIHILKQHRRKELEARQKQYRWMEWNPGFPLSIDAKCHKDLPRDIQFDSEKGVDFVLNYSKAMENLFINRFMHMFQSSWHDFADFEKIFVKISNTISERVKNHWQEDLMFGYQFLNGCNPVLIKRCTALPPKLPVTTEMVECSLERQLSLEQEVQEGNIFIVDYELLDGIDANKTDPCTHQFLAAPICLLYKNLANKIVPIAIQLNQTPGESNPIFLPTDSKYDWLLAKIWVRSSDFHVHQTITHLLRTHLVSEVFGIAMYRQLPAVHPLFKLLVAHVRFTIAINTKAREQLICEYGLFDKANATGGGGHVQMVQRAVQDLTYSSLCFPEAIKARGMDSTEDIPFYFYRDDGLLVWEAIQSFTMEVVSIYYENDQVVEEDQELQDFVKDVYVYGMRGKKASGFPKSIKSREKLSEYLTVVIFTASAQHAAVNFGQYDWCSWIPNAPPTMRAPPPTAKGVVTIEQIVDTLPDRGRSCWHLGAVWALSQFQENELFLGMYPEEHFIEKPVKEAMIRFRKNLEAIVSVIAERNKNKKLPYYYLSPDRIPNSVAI
Kind of experiment: 5-Lipoxygenase Assay (MC-9 mast cells, 5-HETE and LTC4 production). In kind it is cell-based, murine. The settings on record: for inhibition at 3.12 µM: MC9, 3.12 μM dose; for inhibition at 6.25 µM: MC9, 6.25 μM dose; for inhibition at 12.5 µM: MC9, 12.5 μM dose; for inhibition at 25 µM: MC9, 25 μM dose. How it is done:
Preincubate MC-9 cells (0.39 ml at 7.5×10^6 cells/ml) without or with test compound dissolved in dimethylsulfoxide (DMSO) vehicle (to a final volume 1 μl) for 4 minutes then incubate for 5 minutes with [^14 C]arachidonic acid (Amersham, 59 Ci/mole) at a 9 μM final concentration, and A23187 (Calbiochem) at a 1 μM final concentration in 10 μl of water:ethanol (9:1). Stop the reaction by addition of methanol (0.4 ml), and remove cellular debris by centrifugation. Run aliquots (250 μl) of the incubations on a Waters two-pump HPLC system fitted with a Waters radial compression column (C18, 10 micron, 8×100 mm, micro-Bondapak) and C18 "Guard Pak". Initially elute the column at 3 ml/min with water:methanol:acetic acid (67:33:0.08) containing 1 mM EDTA adjusted to pH 6.0 with ammonium hydroxide (Pump A). At 4 minutes, establish a linear gradient to reach 100% methanol (Pump B) at 9 minutes. Between 13 and 14 minutes, exchange for the initial eluting solvent and by 19 minutes the column will be reequilibrated for the next sample. Analyze the effluent by a continuous flow radioactivity monitor (model ROMONA-D) interfaced with a Hewlett Packard Lab Automation System for quantitation of radioactive products. […] Doses in table 2 are 50 μM unless otherwise noted.

In experiment [1] the test system is Peptidoleukotriene Release in Guinea Pig Lung. As to the kind of experiment: Peptidoleukotriene Release Inhibition in Lung Assay. It is filed as cell-based. The settings on record: Cavia porcellus; final concentration of 50 μm (so in the source); ovalbumin challenge, sensitized guinea pig lung. An excerpt: The anti-allergy method of this invention is identified by tests that measure inhibition of leukotriene release in sensitized guinea pigs by compounds of the invention. This procedure is as follows.
First, kill sensitized guinea pigs by a blow to the head, remove the lungs and clean them of visible connective tissue, trachea and large blood vessels. Slice the lungs from individual animals into fragments approximately 1 mm in thickness using a McIlwain tissue chopper and wash them with oxygenated Tyrode's buffer. Transfer weighed aliquots (approximately 400 mg wet weight) of lung into vials containing 2 ml of fresh Tyrode's solution (containing 10 mM cysteine) and incubate in the presence or absence of test compound for 12 minutes at 37° C., challenge the tissues with 20 μg ovalbumin/ml (final concentration) and incubate for 15 minutes. To measure leukotriene release, extract an aliquot of supernatant fluid with 4 volumes of 100% ethanol. After removal of the precipitated protein, dry the clear fluid under a stream of N2 gas. Measure the leukotriene content by a radioimmunoassay using [^3 H]LTC4 (leukotriene C4) and antiserum obtained from New England Nuclear. […] Calculate percent inhibition of leukotriene release by comparing for each lung the release in the presence of the test compound to that in the absence of test compound.

The mark [2] stands for this setting: MC9, 50 μM dose, MC-9 cells, read-out: % Inhibition 5-HETE.
[3] abbreviates: MC9, 50 μM dose, MC-9 cells, read-out: % Inhibition LTC4.
[4] abbreviates: MC-9 cells, read-out: % Inhibition 5-HETE.
[5] abbreviates: MC-9 cells, read-out: % Inhibition LTC4.

Structures can show the parent of a compound that is named as a salt. Where two headings read alike, the source gives them in different places.

In the case of `CC(=O)Oc1cc(OC(C)=O)c2c3c(n(C)c(=O)c2c1)CCC3`, on 5-lipoxygenase (setting [2]), the inhibition – broadly, the change of the read-out against control, counted positive when it falls – at 50 µM worked out at 56%.
Same read-out and setting: with `O=c1[nH]c2c(c3c(O)cc(O)cc13)CCC2` the figure was 31%.
For `O=C1c2cc(O)cc(O)c2C(O)(c2ccccc2)C2CCCCN12` (stereo not shown) [1,2,3,4,11,11a-hexahydro-8,10,11-trihydroxy-11-phenyl-6H-benzo[b]quinolizin-6-one], the figures for the inhibition at 50 µM at 5-lipoxygenase (setting [2]) and at 5-lipoxygenase (setting [3]) were 23% and 32%, respectively.
With `O=c1c2cc(O)cc(O)c2c(O)c2n1CCCC2` [1,2,3,4-tetrahydro-8,10,11-trihydroxy-6H-benzo[b]quinolizin-6-one], the inhibition at 50 µM turned out to be 18% on 5-lipoxygenase (setting [2]) and 28% in experiment [1].
For `Cc1c2n(c(=O)c3cc(O)cc(O)c13)CCCC2` [1,2,3,4-tetrahydro-8,10-dihydroxy-11-methyl-6H-benzo[b]quinolizin-6-one, disodium salt], the inhibition at 50 µM at 5-lipoxygenase (MC9, read-out: % Inhibition 5-HETE) is 88%; in experiment [1] it was 71%.
On to `O=c1[nH]c2c(c3c(O)cc(O)cc13)CCCC2` [1,3,4,5-tetrahydro-8,10-dihydroxy-phenanthridin-6(2H)-one], for which, at 5-lipoxygenase (setting [2]), the inhibition at 50 µM was 31%.
For `CC(=O)Oc1cc(OC(C)=O)c2c(-c3ccccc3)c(C)n(C)c(=O)c2c1` [5,7-bis(acetyloxy)-2,3-dimethyl-4-phenyl-1(2H)-isoquinolinone], the inhibition at 50 µM at 5-lipoxygenase (setting [2]) turned out to be 5%; in experiment [1] it was 45%.
Regarding `CC(=O)Oc1cc(OC(C)=O)c2c(-c3ccccc3)c(C)[nH]c(=O)c2c1` [5,7-bis(acetyloxy)-3-methyl-4-phenyl-1(2H)-isoquinolinone], the inhibition at 50 µM on 5-lipoxygenase (setting [2]) was 31%; at 5-lipoxygenase (setting [3]), 27%; in experiment [1], 12%.
As to `CC(=O)Oc1cc(OC(C)=O)c2c(C)c[nH]c(=O)c2c1` [5,7-bis(acetyloxy)-4-methyl-1(2H)-isoquinolinone], the figures for the inhibition at 50 µM on 5-lipoxygenase (setting [2]) and at 5-lipoxygenase (setting [3]) were 43% and 40%, respectively.
The corresponding values for `CC(=O)Oc1cc(OC(C)=O)c2c(-c3ccccc3)c[nH]c(=O)c2c1` [5,7-bis(acetyloxy)-4-phenyl-1(2H)-isoquinolinone] are 19% and 16%.
For `CC(=O)Oc1cc(OC(C)=O)c2c(-c3ccccc3)c3n(c(=O)c2c1)CCC3` [7,9-bis(acetyloxy)-2,3-dihydro-10-phenyl-6H-pyrrolo[1,2-b]isoquinolin-5(1H)-one], the inhibition at 50 µM on 5-lipoxygenase (setting [2]) was 18%; on 5-lipoxygenase (setting [3]), 10%; in experiment [1], 76%.
Regarding `CC(=O)Oc1cc(OC(C)=O)c2c(OC(C)=O)c3n(c(=O)c2c1)CCCC3` [8,10,11-tris(acetyloxy)-1,2,3,4-tetrahydro-6H-benzo[b]quinolizin-6-one], the inhibition at 50 µM on 5-lipoxygenase (setting [2]) amounted to 2%; in experiment [1], 39%.
The corresponding values for `Cc1c2n(c(=O)c3cc(OC(=O)C(C)(C)C)cc(OC(=O)C(C)(C)C)c13)CCCC2` [8,10-bis(2,2-dimethyl-1-oxopropoxy)-11-methyl-1,3,4,6-tetrahydro-6H-benzo[b]quinolizin-6-one] are 45% and 5%.
The corresponding values for `CC(=O)Oc1cc(OC(C)=O)c2c(-c3ccccc3)c3n(c(=O)c2c1)CCCC3` [8,10-bis(acetyloxy)-1,2,3,4,-tetrahydro-11-phenyl-6H-benzo[b]quinolizin-6-one] are 21% and 66%.
With `CC(=O)Oc1cc(OC(C)=O)c2c3c([nH]c(=O)c2c1)CCCC3` [8,10-bis(acetyloxy)-1,3,4,5,6-tetrahydro-6(2H)-phenanthridinone], the inhibition at 50 µM amounted to 56% on 5-lipoxygenase (setting [2]), 41% at 5-lipoxygenase (setting [3]) and 36% in experiment [1].
On to `Cc1c2n(c(=O)c3cc(OC(=O)CN)cc(OC(=O)CN)c13)CCCC2` [8,10-bis[(aminoacetyl)oxy]-11-methyl-1,2,3,4-tetrahydro-6H-benzo[b]quinolizine-6-one dihydrochloride], for which the inhibition at 50 µM on 5-lipoxygenase (setting [2]) is 99%.
Same read-out and setting: with `CC(=O)Oc1ccc2c(c1)C(=O)N1CCCCC1C2(C)O` (stereo not shown) [8-acetyloxy-1,2,3,4,11,11a-hexahydro-11-hydroxy-11-methyl-6H-benzo[b]quinolizin-6-one] the figure was 5%.
As for `CC(=O)Oc1ccc2c(C)c3n(c(=O)c2c1)CCCC3` [8-acetyloxy-1,2,3,4-tetrahydro-11-methyl-6H-benzo[b]quinolizin-6-one], the inhibition at 50 µM at 5-lipoxygenase (setting [2]) turned out to be 19%; in experiment [1], 9%.
The corresponding values for `CC(=O)Oc1ccc2c(=O)n3c(c(C)c2c1OC(C)=O)CCCC3` [9,10-bis(acetyloxy)-1,2,3,4-tetrahydro-11-methyl-6H-benzo[b]quinolizin-6-one] are 74% and 84%.
In the case of `CC(=O)Oc1cc(OC(C)=O)c2c(C)c3n(c(=O)c2c1)CCCC3` [A, 8,10-bis(acetyloxy)-1,2,3,4-tetrahydro-11-methyl-6H-benzo[b]quinolizin-6-one], at 5-lipoxygenase (setting [4]), the inhibition at 3.12 µM came to 50%, the inhibition at 6.25 µM amounted to 65%, the inhibition at 12.5 µM stood at 62% and the inhibition at 25 µM was found to be 93%. Also, at 5-lipoxygenase (setting [5]), the inhibition at 3.12 µM is 57%, the inhibition at 6.25 µM was found to be 59%, the inhibition at 12.5 µM was 54% and the inhibition at 25 µM came out at 90%. Besides, the inhibition at 50 µM in experiment [1] stood at 69%.
For `Cc1c2n(c(=O)c3cc(O)cc(O)c13)CCCC2` [C, 1,2,3,4-tetrahydro-8,10-dihydroxy-11-methyl-6H-benzo[b]quinolizin-6-one], the results for the inhibition at 50 µM (at 5-lipoxygenase (setting [2]); in experiment [1]) were 100% and 61%, respectively.
The corresponding values for `CC(=O)Oc1ccc2c(C)c3n(c(=O)c2c1OC(C)=O)CCCC3` [D, 7,8-bis(acetyloxy)-1,2,3,4-tetrahydro-11-methyl-6H-benzo[b]quinolizin-6-one] are 98% and 62%.

Values taken from patent US4897391A, “Tricyclic anti-allergy, antiinflammatory and anti-hyperproliferative compounds” (Schering Corporation, priority 1988, dated 1990).
